We go through two compounds from article PMC5391968, “Comparison of cell-based assays for the identification and evaluation of competitive CXCR4 inhibitors” (PLoS ONE, 2017).

Data set [1] concerns the target T1, CXCR4 (Homo sapiens, UniProt P61073). Briefly: CXCL12^AF647 binding assay on Jurkat cells. Conditions: read-out: IC50 CXCL12-CXCR4 binding interaction. As for the experimental part:
In brief, Jurkat cells were washed twice in assay buffer [Hank’s Balanced Salt Solution (HBSS; Thermo Fisher Scientific), 20 mM HEPES buffer (Thermo Fisher Scientific), 0.2% bovine serum albumin (Sigma-Aldrich), pH 7.4]. […] Afterwards, cells were washed twice in assay buffer and subsequently fixed in 1% paraformaldehyde in Dulbecco’s phosphate buffered saline (DPBS). Samples were analyzed with the FACSArray flow cytometer (Becton Dickinson, NJ, USA). Data were further analyzed with the FlowJo Software (Ashland, Oregon, USA).

Data set [2] concerns the target T1, CXCR4. Briefly: Calcium mobilization assay (FLIPR Tetra) in U87.CD4.CXCR4 cells. As to conditions: read-out: IC50 Calcium signaling (CXCL12-induced). It counts as cell-based. The method, then: U87.CD4.CXCR4 cells were seeded at 2x10^4 cells per well in gelatin-coated black-walled 96-well plates [0.1% gelatin in DPBS, incubated at RT for two hours and washed once with DPBS] and incubated at 37°C and 5% CO2 overnight. […] Fluo-2 AM loaded cells were washed with assay buffer before being incubated in the FLIPR Tetra system at 37°C for five minutes. At the start of the kinetic measurement, compounds were added to the cell plate by the internal robotic system followed by an incubation period of 10 minutes during which changes in the intracellular calcium level were continuously measured by the FLIPR Tetra. […] Each condition was measured in triplicate and repeated several times as further indicated (see Results).

Data set [3] has as its system CXCR4-positive Jurkat cells. Briefly: cells. The class given is cell-based, human. As to conditions: read-out: IC50 Chemotaxis. The method, then:
Jurkat cells were washed twice in assay buffer (see above), dispensed into a 96-well plate (5x10^5 cells per well) containing serial dilutions of compounds (in assay buffer) and incubated at RT in the dark for 10 minutes. […] Suspensions of 1.87x10^4 cells were transferred to the chemotaxis insert plate. […] After removal of the insert plate, migrated cells were centrifuged and resuspended in DPBS containing flow cytometry cell counting beads ([…] Fluorescent Particles; Gentaur, London, UK). Both migrated cells and particles were counted by flow cytometry (FACSCanto II; Becton Dickinson). Each compound concentration was tested in triplicate. Data were analyzed using the FlowJo software and the total number of migrated cells was calculated, according to the counted and total number of beads present in the sample.

In data set [4] the test system is HIV-1 NL4-3 (X4). Kind of data set: microbe, parasite or virus in culture. It counts as cell-based. Conditions: MT-4 cells, four days post infection, MTS, mean ± SEM, read-out: IC50 HIV-1 (X4) NL4-3 replication, MT-4 cells. As for the experimental part: The anti-HIV replication assays in MT-4 cells and PHA-stimulated PBMCs have been described previously. The HIV-1 T-tropic molecular clone NL4-3 (X4) was obtained from the National Institute of Allergy and Infectious Disease (NIAID) AIDS reagent program (Bethesda, MD, USA). Briefly, 5x10^4 MT-4 cells (in cell culture medium) were treated with different concentrations of compound at 37°C for 30 minutes. Afterwards, a 50% tissue culture infectious dose of the NL4-3 viral stock was added to the cell-compound mixtures. Four days post infection, the cytopathic effect was evaluated microscopically and cell viability was assessed with the MTS method, as described above.
In the antiviral assays, each condition was tested in duplicate.

In data set [5] the test system is HIV-1 NL4-3 (X4). Briefly: microbe, parasite or virus in culture. The class given is cell-based. Conditions: PHA-stimulated PBMCs, ten days post infection, p24 Ag ELISA, mean ± SEM, read-out: IC50 HIV-1 (X4) NL4-3 replication, PHA-stimulated PBMCs. As for the experimental part: PHA-stimulated PBMCs at 5x10^5 cells per sample, pre-incubated with test compounds dissolved in cell culture medium containing IL-2 (2 ng/ml; […] After three days, fresh culture medium with IL-2 was added. Ten days post infection cell supernatant was collected for HIV-1 p24 core antigen enzyme-linked immunosorbent assay (ELISA; Perkin Elmer, Boston, MA, USA) according to the manufacturer’s protocol. In the antiviral assays, each condition was tested in duplicate.

Data set [6] concerns the target T1, CXCR4. Briefly: CXCR4 internalization assay in SUP-T1 cells. Details: CXCR4 receptors endogenously expressed on SUP-T1 cells; endogenous in cells; host or cells: SUP-T1 (ATCC). As to conditions: for induction of CXCR4 internalization (agonistic effect): in absence of CXCL12, data not shown. It counts as cell-based. As for the experimental part:
T-lymphoblastic SUP-T1 cells were washed twice in DPBS containing 2% FBS. Afterwards, cells were first incubated with the PE-labeled rat anti-human CXCR4 mAb (clone 1D9; 2 μg/ml in DPBS/2% FBS; BD Pharmingen) on ice for 45 minutes. […] SUP-T1 cells were subsequently washed once with ice cold DPBS and twice with ice cold assay buffer (see above) before being treated with test compound on ice for 15 minutes. […] Samples were immediately analyzed with the FACSCalibur flow cytometer (Becton Dickinson) whereby the measured fluorescence corresponds to the amount of […] CXCR4 receptors. Data were further analyzed with the FlowJo software.

Data set [7] addresses T1, CXCR4. Kind of data set: CXCL12/CXCR4 interaction on SUP-T1 cells. Details: CXCR4 receptors endogenously expressed on SUP-T1 cells; endogenous in cells; host or cells: SUP-T1 (ATCC). Conditions: high concentration, data not shown. The class given is binding.
Data set [8] concerns the target T1, CXCR4. Kind of data set: Labeled CXCR4 monoclonal antibody binding (clones 12G5, 1D9), flow cytometry. Conditions: 12G5 clone and 1D9 clone, data not shown. Details: CXCR4 receptors endogenously expressed on SUP-T1 cells; endogenous in cells; host or cells: SUP-T1 (ATCC). The method, then:
A feature of CXCR4, shared with many other GPCRs, is its internalization following agonist binding, also known as receptor endocytosis. To evaluate the potential inhibitory effect of the compounds on CXCR4 endocytosis, CXCR4 receptors endogenously expressed on SUP-T1 cells were first stained with a PE-labeled rat anti-human CXCR4 mAb targeting the receptor’s N-terminus (clone 1D9) and subsequently incubated with compound. […] In addition, when SUP-T1 cells were incubated with compound for thirty minutes at 4°C, and afterwards stained with the CXCR4 mAb (1D9) for thirty minutes at 4°C, no displacement (i.e. decrease in mAb binding) of the CXCR4 mAb was observed by flow cytometry (data not shown). […] In consequence, reduced cellular staining in our assay reflects the inhibitory effects of compounds on receptor internalization and not simply displacement of the CXCR4 mAb.

Data set [9] is described as follows: in vitro. It counts as cell-based. Conditions: human. As for the experimental part: (§1) Jurkat cells (3x10^5 cells per well in culture medium) were incubated with serial dilutions of compound at room temperature (RT) for two hours. Cytotoxicity of the compounds was also evaluated at 37°C over a longer period of time in MT-4 cells (5x10^4 cells per well in culture medium, four day incubation) and PHA-stimulated PBMCs (5x10^5 cells per well in culture medium, ten day incubation) because these cell types were used in anti-HIV activity assays which last up to ten days (see below). Each condition was tested in duplicate. Cytotoxicity was evaluated microscopically and, in addition, cell viability was assessed using the colorimetric CellTiter 96 AQueous One Solution Cell Proliferation Assay (Promega, Fitchburg, WI, USA), which is based on the reduction of the tetrazolium salt MTS [3-(4,5-dimethylthiazol-2-yl)-5-(3-carboxymethoxyphenyl)-2-(4-sulfophenyl)-2H-tetrazolium] to formazan by metabolically active cells. Absorbance at 490 nm was measured with the VersaMax ELISA Microplate Reader (Molecular Devices, Sunnyvale, CA, USA). The cytotoxic concentration 50 (CC50) of each compound was calculated based on the absorbance of negative (i.e. cells without compound) and positive (i.e. only culture medium) control samples.

Data set [10] can be described thus: in vitro. The class given is cell-based. Conditions: human. As for the experimental part:
Freshly isolated peripheral blood mononuclear cells (PBMCs) were isolated out of buffy coats from healthy donors (Red Cross, Belgium). They were cultured in RPMI medium with 10% FBS, 2 mM L-glutamine and stimulated with 2 μg/ml phytohemagglutinin (PHA; Sigma-Aldrich) for three days before use in the HIV replication assays (see below).
as §1, with “The cytotoxic concentration 50 (CC50) of each compound was calculated based on the absorbance of negative (i.e. cells without compound) and positive (i.e. only culture medium) control samples.” left out
This is another data set of the same source.

pIC50: −log10 of the molar value. Read-outs that look alike come from different tables or passages of the source.

T1 sequence (P61073 whole entry): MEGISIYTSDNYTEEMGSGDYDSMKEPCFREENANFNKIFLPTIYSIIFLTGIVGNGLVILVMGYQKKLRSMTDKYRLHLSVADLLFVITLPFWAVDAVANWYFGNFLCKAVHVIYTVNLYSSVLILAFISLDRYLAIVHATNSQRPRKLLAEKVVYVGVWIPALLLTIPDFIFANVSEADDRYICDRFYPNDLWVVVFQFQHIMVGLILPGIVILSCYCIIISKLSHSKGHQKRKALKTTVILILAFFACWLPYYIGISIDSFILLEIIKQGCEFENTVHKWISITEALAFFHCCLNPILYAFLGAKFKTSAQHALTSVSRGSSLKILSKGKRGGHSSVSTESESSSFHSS

For `c1ccc(NCc2ccc(CNc3ccccn3)cc2)nc1` [WZ811], the negative-log IC50 (pIC50) at CXCR4 [1] (Jurkat cells, 2.9 nM CXCL12^AF647, mean ± SEM) is less than 4.00; at CXCR4 [2] (U87.CD4.CXCR4 cells, 6.25 nM CXCL12, mean ± SEM), less than 4.00; in data set [3] (Jurkat cells, 6.25 nM CXCL12, two hours, mean ± SEM), less than 4.00; in the data set with HIV-1 NL4-3 (X4) [4], less than 4.00; with HIV-1 NL4-3 (X4) [5] it was 4.42; at CXCR4 [6] (SUP-T1 cells, 6.25 nM CXCL12, 37°C 30 minutes, mean ± SEM), less than 4.00. Further, the “induction of CXCR4 internalization (agonistic effect)” value on CXCR4 [6] (100 μM) was “absence of an agonistic effect”. The “inhibition of the interaction between CXCL12 and CXCR4” value against CXCR4 [7] is “unable, even at high concentration, to inhibit the interaction between CXCL12 and CXCR4”. Also, at CXCR4 [8], the “reduction of labeled CXCR4 mAb binding” value is given as “unable to reduce mAb binding”.

As for `CC(C)=CCC[C@]1(C)C=Cc2c(O)c3c(c(CC=C(C)C)c2O1)O[C@]12C(=C[C@@H]4C[C@H]1C(C)(C)O[C@@]2(C/C=C(/C)C(=O)O)C4=O)C3=O` [gambogic acid], it took 10 µM to reach half-maximal cytotoxicity in “in vitro [9]” (CC50 at 2 h). This compound registered a CC50 at 4 days in the data set “in vitro [9]” of roughly 0.3 µM. The CC50 at 10 days in “in vitro [10]” is roughly 0.3 µM. The pIC50 at CXCR4 [1] was 5.15; at CXCR4 [2], 5.36; in [3] (Homo sapiens, Jurkat, 2 h) it was 5.72; in the data set on HIV-1 NL4-3 (X4) [4] (Human immunodeficiency virus 1, NL43, MT4, 96 h), less than 6.42; in the data set with HIV-1 NL4-3 (X4) [5] (Human immunodeficiency virus 1, NL43, PBMC, 240 h), less than 6.65; against CXCR4 [6] it was less than 5.00. Besides, the “induction of CXCR4 internalization (agonistic effect)” value at CXCR4 [6] (10 μM) is listed as “absence of an agonistic effect”.
